Measured values from patent US20240109903A1, “SUBSTITUTED HETEROCYCLES FOR TREATING CANCER” (Northwestern University, priority 2022, published 2024).
Like-named read-outs stand apart in the source and are kept apart here.

Tests used:
HOP-92 = experiment: NCI 60 five-dose screen HOP-92; type: cell-based; conditions: Homo sapiens; for CC50: read-out: LC50 (the source's name) (converted)
RXF 393 = experiment: NCI 60 five-dose screen RXF 393; type: cell-based; conditions: Homo sapiens; for CC50: read-out: LC50 (the source's name) (converted)
NCI-H522 = experiment: NCI 60 five-dose screen NCI-H522; type: cell-based; conditions: Homo sapiens; for CC50: read-out: LC50 (the source's name) (converted)
CCRF-CEM = experiment: NCI 60 five-dose screen CCRF-CEM; type: cell-based; conditions: Homo sapiens; for CC50: read-out: LC50 (the source's name)
NCI-H226 = experiment: NCI 60 five-dose screen NCI-H226; type: cell-based; conditions: Homo sapiens; for CC50: read-out: LC50 (the source's name) (converted)
IGROV1 = experiment: NCI 60 five-dose screen IGROV1; type: cell-based; conditions: Homo sapiens; for GI50 / IC50 / IC (TGI): IGROV-1; for CC50: IGROV-1, read-out: LC50 (the source's name) (converted)
EKVX = experiment: NCI 60 five-dose screen EKVX; type: cell-based; conditions: Homo sapiens; for CC50: read-out: LC50 (the source's name) (converted)
MCF7 = experiment: NCI 60 five-dose screen MCF7; type: cell-based; conditions: Homo sapiens; for CC50: read-out: LC50 (the source's name) (converted)
HCT-15 = experiment: NCI 60 five-dose screen HCT-15; type: cell-based; conditions: Homo sapiens; for CC50: read-out: LC50 (the source's name) (converted)
BT-549 = experiment: NCI 60 five-dose screen BT-549; type: cell-based; conditions: Homo sapiens; for CC50: read-out: LC50 (the source's name) (converted)
HCT-116 = experiment: NCI 60 five-dose screen HCT-116; type: cell-based; conditions: Homo sapiens; for CC50: read-out: LC50 (the source's name) (converted)
OVCAR-8 = experiment: NCI 60 five-dose screen OVCAR-8; type: cell-based; conditions: Homo sapiens; for CC50: read-out: LC50 (the source's name) (converted)
[1] = tested on: MV-4-11 acute myeloid leukemia cells; experiment: CellTiter-Glo 2.0 cell viability, MV-4-11; type: cell-based; conditions: Homo sapiens
Description: 2019 October; 94(4): 1813-1823.
Cell viability was assessed using the CellTiter-Glo 2.0 assay from Promega, which yields a signal proportional to the amount of ATP present in a cell population. Compounds were first dispensed into empty 96-well flat-bottom tissue culture-treated plates (Corning) using an Echo550. MV4-1 cells were diluted to a density of 0.1 million cells per ml, pipetted onto the compounds at a density of 1,000 cells per well for U937 and 3,000 cells per well for MV4-11, mixed, and incubated for 3 days at 37° C. with 5% C02. After incubating, 5 μl of cells from each well were added to 5 μl of CellTiter-Glo 2.0 reagent in a384-well white ProxiPlate (PerkinElmer), incubated for 20 minutes at ambient temperature, and luminescence was analyzed on an EnSpire plate reader. Graphing and regression analysis was performed in Graphpad Prism.

SF-268 = experiment: NCI 60 five-dose screen SF-268; type: cell-based; conditions: Homo sapiens; for CC50: read-out: LC50 (the source's name) (converted)
786-0 = experiment: NCI 60 five-dose screen 786-0; type: cell-based; conditions: Homo sapiens; for CC50: read-out: LC50 (the source's name) (converted)
NCI/ADR-RES = experiment: NCI 60 five-dose screen NCI/ADR-RES; type: cell-based; conditions: Homo sapiens; for CC50: read-out: LC50 (the source's name) (converted)
K-562 = experiment: NCI 60 five-dose screen K-562; type: cell-based; conditions: Homo sapiens; for GI50 / IC50 / IC (TGI): K562; for CC50: K562, read-out: LC50 (the source's name)
NCI-H460 = experiment: NCI 60 five-dose screen NCI-H460; type: cell-based; conditions: Homo sapiens; for CC50: read-out: LC50 (the source's name) (converted)
full NCI 60 cell panel = experiment: NCI 60 Cell One-dose screen; type: cell-based, human; conditions: single high dose 10^−5 M, NCI 60 panel
Source text: Compounds were submitted to the NCI 60 Cell screen and tested at a single high dose (10^−5 M) in the full NCI 60 cell panel (see the following reference for details of using NCI 60 human tumor cell lines for screening anticancer drugs: Shoemaker R H. The NCI60 human tumor cell line anticancer drug screen. Nature Rev Cancer 2006; 6: 813-23). The One-dose data is reported as a mean graph of the percent growth of treated cells. The number reported for the One-dose assay is growth relative to the no-drug control, and relative to the time zero number of cells. This allows detection of both growth inhibition (values between 0 and 100) and lethality (values less than 0). For example, a value of 100 means no growth inhibition. A value of 40 would mean 60% growth inhibition. A value of 0 means no net growth over the course of the experiment. A value of −40 would mean 40% lethality. A value of −100 means all cells are dead. FIGS. 1-8 show the mean graph of percent growth against the NCI-60 cell panel for NUCC-0226674, NUCC-0226679, NUCC-0226680, NUCC-0226683, NUCC-0226689, NUCC-0226694, NUCC-0226695, and NUCC-0226698.

CAKI-1 = experiment: NCI 60 five-dose screen CAKI-1; type: cell-based; conditions: Homo sapiens; for CC50: read-out: LC50 (the source's name) (converted)
[2] = MV4-11, 72 h, MV-4-11 cells, 3 days, CellTiter-Glo 2.0, read-out: IC50 (uM) [Cell Type: MV-4-11]
[3] = MV4-11, bound stated in text, read-out: IC50 against MV-4-11 acute myeloid leukemia cells

## O=c1ccc(Cn2c(C(F)(F)F)cc3c(Cl)ncnc32)c[nH]1 [NUCC-0226698]
HOP-92
  GI50: 22.9 µM
  IC50: 100 µM
  IC (TGI): 100 µM
  CC50: ≥ 100 µM
RXF 393
  GI50: 11.2 µM
  IC50: 35.5 µM
  IC (TGI): 32.4 µM
  CC50: 91.2 µM
NCI-H522
  GI50: 2.04 µM
  IC50: 3.98 µM
  IC (TGI): 4.9 µM
  CC50: ≥ 100 µM
CCRF-CEM
  GI50: 4.37 µM
  IC50: 6.61 µM
  IC (TGI): 100 µM
  CC50: ≥ 100 µM
NCI-H226
  GI50: 31.6 µM
  IC50: 100 µM
  IC (TGI): 100 µM
  CC50: ≥ 100 µM
IGROV1
  GI50: 2.29 µM
  IC50: 3.72 µM
  IC (TGI): 6.03 µM
  CC50: 26.3 µM
EKVX
  GI50: 14.1 µM
  IC50: 30.9 µM
  IC (TGI): 36.3 µM
  CC50: 91.2 µM
MCF7
  GI50: 20.9 µM
  IC50: 32.4 µM
  IC (TGI): 67.6 µM
  CC50: ≥ 100 µM
HCT-15
  GI50: 2.95 µM
  IC50: 3.8 µM
  IC (TGI): 14.8 µM
  CC50: ≥ 100 µM
BT-549
  GI50: 14.1 µM
  IC50: 29.5 µM
  IC (TGI): 28.8 µM
  CC50: 58.9 µM
HCT-116
  GI50: 3.55 µM
  IC50: 4.17 µM
  IC (TGI): 29.5 µM
  CC50: ≥ 100 µM
OVCAR-8
  GI50: 3.55 µM
  IC50: 4.79 µM
  IC (TGI): 17.4 µM
  CC50: ≥ 100 µM
[1]; [2]
  IC50: 1.26 µM
[1]; [3]
  IC50: < 2 µM
SF-268
  GI50: 10.7 µM
  IC50: 20.9 µM
  IC (TGI): 28.8 µM
  CC50: 79.4 µM
786-0
  GI50: 43.7 µM
  IC50: 72.4 µM
  IC (TGI): 100 µM
  CC50: ≥ 100 µM
NCI/ADR-RES
  GI50: 14.1 µM
  IC50: 27.5 µM
  IC (TGI): 39.8 µM
  CC50: ≥ 100 µM
K-562
  GI50: 2.82 µM
  IC50: 3.39 µM
  IC (TGI): 100 µM
  CC50: ≥ 100 µM
NCI-H460
  GI50: 12 µM
  IC50: 16.6 µM
  IC (TGI): 36.3 µM
  CC50: ≥ 100 µM
Full NCI 60 cell panel
  growth inhibition in the One-Dose Screen: significant growth inhibition
CAKI-1
  GI50: 23.4 µM
  IC50: 42.7 µM
  IC (TGI): 100 µM
  CC50: ≥ 100 µM

## COc1cc(Cn2c(C(F)(F)F)cc3c(Cl)ncnc32)ccn1 [NUCC-0226694]
HOP-92
  GI50: 10.7 µM
  IC50: 33.9 µM
  IC (TGI): 30.2 µM
  CC50: 85.1 µM
RXF 393
  GI50: 7.94 µM
  IC50: 24.5 µM
  IC (TGI): 22.4 µM
  CC50: 55 µM
NCI-H522
  GI50: 3.31 µM
  IC50: 11 µM
  IC (TGI): 15.1 µM
  CC50: 50.1 µM
CCRF-CEM
  GI50: 3.16 µM
  IC50: 5.37 µM
  IC (TGI): 18.6 µM
  CC50: ≥ 100 µM
NCI-H226
  GI50: 15.5 µM
  IC50: 33.1 µM
  IC (TGI): 32.4 µM
  CC50: 67.6 µM
IGROV1
  GI50: 1.78 µM
  IC50: 3.16 µM
  IC (TGI): 3.63 µM
  CC50: 7.41 µM
EKVX
  GI50: 7.94 µM
  IC50: 17 µM
  IC (TGI): 24 µM
  CC50: 63.1 µM
MCF7
  GI50: 5.13 µM
  IC50: 7.24 µM
  IC (TGI): 20 µM
  CC50: 61.7 µM
HCT-15
  GI50: 3.09 µM
  IC50: 3.8 µM
  IC (TGI): 10 µM
  CC50: 53.7 µM
BT-549
  GI50: 1.62 µM
  IC50: 3.24 µM
  IC (TGI): 3.16 µM
  CC50: 6.03 µM
HCT-116
  GI50: 1.74 µM
  IC50: 2.63 µM
  IC (TGI): 4.27 µM
  CC50: 15.1 µM
OVCAR-8
  GI50: 11.5 µM
  IC50: 19.1 µM
  IC (TGI): 26.3 µM
  CC50: 61.7 µM
[1]; [2]
  IC50: 0.999 µM
[1]; [3]
  IC50: < 2 µM
SF-268
  GI50: 2.45 µM
  IC50: 4.57 µM
  IC (TGI): 9.33 µM
  CC50: 41.7 µM
786-0
  GI50: 10.7 µM
  IC50: 17 µM
  IC (TGI): 25.7 µM
  CC50: 63.1 µM
NCI/ADR-RES
  GI50: 15.1 µM
  IC50: 27.5 µM
  IC (TGI): 33.9 µM
  CC50: 74.1 µM
K-562
  GI50: 2.34 µM
  IC50: 2.69 µM
  IC (TGI): 100 µM
  CC50: ≥ 100 µM
NCI-H460
  GI50: 2.69 µM
  IC50: 3.31 µM
  IC (TGI): 8.13 µM
  CC50: 34.7 µM
Full NCI 60 cell panel
  growth inhibition in the One-Dose Screen: significant growth inhibition
CAKI-1
  GI50: 7.24 µM
  IC50: 13.8 µM
  IC (TGI): 20.4 µM
  CC50: 46.8 µM
